Measured values published in patent publication US12661370B2, “Amino acid salts of nicotinic acid ribosides as anti-aging agents” (Jumpstart Fertility Pty Ltd, priority 2018, dated 2026).

System: COV434 cells
Assay: NAD cell assay (NAD cycling method)
Format: cell-based
Conditions: cellular NAD level, 200 uM for 4 hr, normalised to protein, mole per mole comparison with NaR parent
Description: NAD levels were assayed based on the NAD cycling method of Zhu and Rand, PLoS One (2012), herein incorporated by reference. COV434 cells were maintained in 6 well plates and treated with the indicated compounds at a concentration of 200 uM for 4 hr. Media was removed, plates were washed in cold PBS and cells were scraped down in NAD extraction buffer containing 10 mM nicotinamide, 50 mM Tris HCl, 0.1% Triton X-100. Cells were homogenised by sonication for 5 seconds, and samples were centrifuged at 7,000 g for 5 min at 4 degrees. Aliquots were taken for later protein assay, and samples were then passed through 10 kDa amicon filters at 14,000 g, 30 min at 4 degrees to remove proteins from the sample. Each sample was measured in technical triplicate, with 25 μL sample added to 100 μL ADH cycling mix (0.2 mg/ml alcohol dehydrogenase enzyme, 2% ethanol, 100 mM Tris pH 8.5). Samples were allowed to cycle for 10 min at room temperature, followed by 50 μL addition of an MTT/PMS solution (0.1 mM phenazine methosulfate, 0.8 mM 3(4,5-Dimethylthiazol-2-yl)-2,5-diphenyltetrazolium bromide), 100 mM Tris-HCl pH 8.5). Plates were then incubated for 15 min and absorbance was measured at 570 nm. NAD concentrations were extrapolated from a standard curve, and normalised to protein concentrations determined by BCA protein assay.
The adjusted fold increase is obtained through a direct comparison on a mole per mole basis between the compared salt and its parent counterpart. In other words, the instant compounds derived from NaR parent molecule will only have their NAD activity level measured against NaR based on the same amount (mole) of salt tested in the cell. For example, the fold increase of compound I-002 is based on the NAD activity observed in a direct comparison for the same amount of mole in the cell and that of the NaR parent. Similarly, the fold increase of i-003 is based on the direct comparison with NaR.

| Molecule | Fold increase adjusted for MW (compared to parent molecule) |
| --- | --- |
| O=C([O-])c1ccc[n+]([C@@H]2O[C@H](CO)[C@@H](O)[C@H]2O)c1 [NaR, reference compound] | 1.0 fold |
| (2S,3S)-2-Ammonio-3-methylpentanoate compound with 1-((2R,3R,4S,5R)-3,4-dihydroxy-5-(hydroxymethyl)tetrahydrofuran-2-yl)pyridine-1-ium-3-carboxylate (1:1) [Compound I-002] | 1.34 fold |
| (S)-2-Ammonio-3-(1H-indol-3-yl)propanoate compound with 1-((2R,3R,4S,5R)-3,4-dihydroxy-5-(hydroxymethyl)tetrahydrofuran-2-yl)pyridine-1-ium-3-carboxylate (1:1) [Compound I-003] | 1.76 fold |
